# Legend:
# male Wistar/AF EOPS rats [1] = assay: Behavioral despair test (forced swimming); assay type: in vivo, rat; conditions: for Immobility period, Test session / Immobility period, Retest session: first 5 minutes; for Immobility period, Test session: test is before any treatment
# Method: Forty male Wistar/AF EOPS rats (Iffa-Credo Breeding Centre, 69-St-Germain sur l'Arbresle, France), weighing 300 to 320 g, were used. On arrival, the rats were labelled and distributed randomly in pairs into type F polycarbonate cages (48×27×20 cm, U.A.R., 91-Epinay-Sur-Orge, France). The animals were stabled in an air-conditioned animal house, at a temperature of 22-24° C. The rats were given food (M25 croquettes, Ets Piétrement, 77-Provins, France) and drink ad libitum and were subjected to a 12-hour light-darkness cycle.
# After one week of familiarization with the laboratory conditions, the rats were weighed and distributed randomly into 3 treatment groups (n=12). The rats of the different groups will all be handled in the same way and under the same conditions.
# The behavioral despair test takes place over two sessions: • a 15-minute test session; • a 5-minute retest session, performed 24 hours later.
# During the test session, the rat was subjected to forced swimming in a Plexiglas cylinder (20 cm in diameter and 50 cm in height, containing 25 cm of water at 25° C.) and its behavior was recorded over 15 minutes. At the end of the test, the rat was removed from the water, dried gently, treated and then returned to its dwelling cage.
# During the retest, 24 hours later, the rat was again placed in the water and its behavior was recorded over 5 minutes.
# The recorded variables are the period of immobility during the first 5 minutes of both the test and the retest.
# The peptide FG-005 was suspended at a rate of 500 μg per 5 ml of 0.01N acetic acid, and then diluted with PBS to be administered at doses of 50 and 100 μg/kg via the i.v. route into the dorsal caudal vein of the rat, immediately after the test and 300 and 5 minutes before the retest the following day (Table X). 8-OH-DPAT was injected i.p.
# A bilateral probability paired t test was used to compare the two periods of immobility of the test with those of the retest in each of the groups. The results are expressed as an average standard error of mean (SEM) (Table XI and FIG. 20). The statistical and graphical processing was performed using Statview5 and DeltaGraph® Pro 3.5 software.
# male rats [2] = conditions: high doses; cited from earlier work
# male Wistar rats [3] = assay: Irwin test; assay type: in vivo, rat; conditions: injected into tail vein, escalating doses
# Method: An Irwin test was performed on 12 male Wistar rats (Iffa Credo, L'Arbresles, France), weighing 260-280 g. They were housed in groups of 4 in a climate controlled room with a 12 h light:dark cycle (light 8:00 PM-8:00 AM) and had access to food and water ad libitum. After a seven day acclimatization period, the rats were weighed, identified and randomly assigned to one of the four treatment groups. The drug was injected to the tail vein of the rats according to the group dose.
# Observations were performed 15, 30, 60 and 120 minutes after administration. Among the most noticeable results are the results concerning the awareness state of the rats. […] Rats injected FG-005 are less stressed as shown by startle response test (FIG. 2), and by the abdominal tone (FIG. 3).
# male Wistar rats [4] = assay: Behavior of male rats in the presence of receptive females; assay type: in vivo, rat
# Method: Behavior tests were performed on 12 male Wistar rats (Iffa Credo, L'Arbresles, France), weighing 260-280 g. They were housed in groups of 4 in a climate controlled room with a 12-h light:dark cycle and had access to food and water ad libitum. After seven days acclimatization period, the rats were weighed, identified and randomly assigned to one of the four treatment groups. The rats were familiarized once with female rats which had been brought to sexual receptivity by injecting estradiol benzoate for 4 days (5 μg/0.5 ml oil, s.c. once daily). Behavioral testing was performed under blind conditions in a dimlight environment 2 hours after the onset of the dark phase of the light/dark cycle. Behavior was assessed by placing the male rat in a plexiglass cage (50×30×20 cm) five minutes before a receptive female was presented. All of the tests on rats were recorded on a VHS-videotape. The recorded parameters were: number of ejaculations, latency of first mount, latency of first ejaculation, number of mounts, postejaculatory interval, avoidance behavior patterns, awareness of other rats presence, initiation or response to social interaction, interest in other rat, self-care, willingness to enter into relationship. All of the quantitative results were analyzed using the Kruskal-Wallis test followed by the Mann-Whitney U-Test to compare each treated group with the control group. The statistical analyzes were carried out using the Statview 4.1 statistical package.
# [5] = tested on: male rats with sexually receptive female; assay: Dose-response relationship of FG-005 on male rat sexual behavior; assay type: in vivo; conditions: for total number of mounts with or without intromission, Mean: 45-min observation
# Method: Effect of increasing concentrations of FG-005 peptide (SMR1-QHNPR) given i.v. on the number of sexual intercourse episodes of male rats with sexually receptive female, was assessed. All of the […] parameters were analyzed using one-way analysis of variance (ANOVA) for the differences between treated groups and followed by the multiple comparison test of Fisher (PLSD Fisher) to compare each group of FG-005-injected rats with the control group (vehicle-injected rats). Nine to ten rats were used for each group and P value of less than 0.005 was considered as significant for both tests.
# This is appreciated by the significant dose-dependent increase of sexual interactions (mounts, mounts with intromission and mounts per ejaculation) during (first ejaculation latency and interejaculatory latency) episodes of sexual intercourse.
# male rats [6] = assay: First two post ejaculatory intervals (PEI); assay type: in vivo, rat
# Method: All quantitative results are statistically analyzed using a Krukal-Wallis test (KWT), as a between-group variable, followed by Mann-Whitney U-test (MWT) to compare the treated group to control one. Friedman test (FT), as within-group variable, was used for repeated measures across the first three ejaculatory series, followed by Wilcoxon (WT). Data are reported as mean ±SEM. For all statistical evaluations, the level of significance was set at p<0.05. All statistical analyses were carried out using the Statview™ 4.5 statistical package (Abacus Concepts, Inc, Berkeley, Calif.).
# Masculine sociosexual behaviors other than copulatory acts were measured and analyzed during the two successive post-ejaculatory intervals. Among these are pursuit of the female, sniffing, grooming, running behind the partner in close contact and anogenital exploration (sniffing, licking and grooming the partner). […] Thus, for a similar amount of time in PEI duration compared to controls, the 3 μg/kg-treated rats spent during this interval, 7 to 10 fold more amount of time to pursue and groom the female.
# male Wistar/AF EOPS rats [7] = assay: Behavioral despair test (forced swimming); assay type: in vivo, rat; conditions: 100 mg/kg; difference not statistically significant
compound,measurement,setting,value
"CCCN(CCC)C1CCc2cccc(O)c2C1 (centres unmarked) [8-OH-DPAT, reference compound]","Immobility period, Test session",male Wistar/AF EOPS rats [1]; 0.5 mg/kg i.p. group,109.20
same,"Immobility period, Retest session","male Wistar/AF EOPS rats [1]; 0.5 mg/kg i.p., 1440, 300, 30 min before retest",31.60
same,"period of immobility, retest compared with test",male Wistar/AF EOPS rats [1]; 8-OH-DPAT 0.5 mg/kg i.p.,significantly reduce their period of immobility
same,anti-resignation effect,"male Wistar/AF EOPS rats [1]; reference substance, 0.5 mg/kg i.p.",significant anti-resignation effect
CC[C@H](C)[C@@H]1NC(=O)[C@H](Cc2ccc(O)cc2)NC(=O)[C@@H](N)CSSC[C@@H](C(=O)N2CCC[C@H]2C(=O)N[C@@H](CC(C)C)C(=O)NCC(N)=O)NC(=O)[C@H](CC(N)=O)NC(=O)[C@H](CCC(N)=O)NC1=O [oxytocin],locomotion,male rats [2],decrease locomotion
"Gln-His-Asn-Pro-Arg (QHNPR; This is a peptide sequence that was designed to achieve therapeutic effects in mammals.) [FG-005, synthesized pentapeptide with N-terminal Glutamine]",abdominal tone (FIG. 3),male Wistar rats [3],less stressed
same,aggressiveness,male Wistar rats [3],not associated with an increase of aggressiveness
same,finger approach test,male Wistar rats [3],increased interest
same,startle response test (FIG. 2),male Wistar rats [3],less stressed
same,vocalization when third parties approach,male Wistar rats [3],increased vocalization
same,wire maneuver test,male Wistar rats [3],Significant response
same,tail pinch test (FIGS. 4-7),"male Wistar rats [3]; 15, 30, 60, 120 minutes",less reactivity to nociceptive stimuli
same,awareness state / sleep (FIG. 1),male Wistar rats [3]; after 2 hours of tests,much less likely to fall asleep
same,"Latency of the first mount, Mean",male Wistar rats [4]; 3 μg/kg,93.333 s
same,latency of first mounts (in words),male Wistar rats [4]; 3 μg/kg,significantly increased latency
same,"number of ejaculations in 45 minutes, Mean",male Wistar rats [4]; 3 μg/kg,5.333
same,"refractory period between the second ejaculation and the next mount, Mean",male Wistar rats [4]; 3 μg/kg,311.333 s
same,"Latency of the first mount, Mean",male Wistar rats [4]; 15 μg/kg,23.000 s
same,"number of ejaculations in 45 minutes, Mean",male Wistar rats [4]; 15 μg/kg,4.000
same,"refractory period between the second ejaculation and the next mount, Mean",male Wistar rats [4]; 15 μg/kg,412.000 s
same,"Latency of the first mount, Mean",male Wistar rats [4]; 30 μg/kg,13.667 s
same,"number of ejaculations in 45 minutes, Mean",male Wistar rats [4]; 30 μg/kg,4.667
same,"refractory period between the second ejaculation and the next mount, Mean",male Wistar rats [4]; 30 μg/kg,373.667 s
same,avoidance symptoms during refractory periods,male Wistar rats [4]; treated vs control rats,loss of avoidance symptoms
same,duration of refractory periods (in words),male Wistar rats [4]; treated vs control rats,shortened
same,interest in the other rat after ejaculation,male Wistar rats [4]; treated vs non-treated rats,interest is maintained
same,"number of episodes of intercourse (number of ejaculations in 45 minutes, in words)",male Wistar rats [4]; treated vs non-treated rats,significantly increased
same,"self-care, attention to personal toilet after each penetration",male Wistar rats [4]; treated vs non-treated rats,increased
same,mean number of mounts per ejaculation,[5]; 0.3 μg/kg i.v.,20.220
same,"number of mounts before the first ejaculation, Mean",[5]; 0.3 μg/kg i.v.,31.111
same,"number of mounts before the fourth ejaculation (interejaculatory interval), Mean",[5]; 0.3 μg/kg i.v.,11.500
same,"number of mounts before the third ejaculation (interejaculatory interval), Mean",[5]; 0.3 μg/kg i.v.,13.444
same,"number of mounts with intromission, Mean",[5]; 0.3 μg/kg i.v.,77.111
same,"total number of mounts with or without intromission, Mean",[5]; 0.3 μg/kg i.v.,81.778
same,mean number of mounts per ejaculation,[5]; 1 μg/kg i.v.,26.911
same,"number of mounts before the first ejaculation, Mean",[5]; 1 μg/kg i.v.,33.444
same,"number of mounts before the fourth ejaculation (interejaculatory interval), Mean",[5]; 1 μg/kg i.v.,19.143
same,"number of mounts before the third ejaculation (interejaculatory interval), Mean",[5]; 1 μg/kg i.v.,18.333
same,"number of mounts with intromission, Mean",[5]; 1 μg/kg i.v.,90.556
same,"total number of mounts with or without intromission, Mean",[5]; 1 μg/kg i.v.,96.667
same,first ejaculation latency,[5]; 3 μg/Kg vs vehicle-injected rats,increased significantly
same,total number of ejaculations,"[5]; 3 μg/Kg, 45 min observation period",lower than that of vehicle-treated rats
same,mean number of mounts per ejaculation,[5]; 3 μg/kg i.v.,36.013
same,"number of mounts before the first ejaculation, Mean",[5]; 3 μg/kg i.v.,37.500
same,"number of mounts before the fourth ejaculation (interejaculatory interval), Mean",[5]; 3 μg/kg i.v.,24.167
same,"number of mounts before the third ejaculation (interejaculatory interval), Mean",[5]; 3 μg/kg i.v.,22.889
same,"number of mounts with intromission, Mean",[5]; 3 μg/kg i.v.,97.700
same,"total number of mounts with or without intromission, Mean",[5]; 3 μg/kg i.v.,110.100
same,third ejaculation latency,[5]; dose-related manner,tended also to increase
same,second ejaculation latency,[5]; pronounced effect at 1 and 3 μg/Kg,significant dose-related prolongation
same,aggressive impulse behavior,[5]; treated vs control rats,loss of aggressive impulse behavior
same,duration of the first PEI,male rats [6]; 1 μg/kg vs control,significantly longer
same,duration of the second PEI,"male rats [6]; 0.3, 1 and 3 μg/kg",not significantly influenced
same,duration of male socio-sexual behaviors during the first and second PEI,"male rats [6]; 0.3, 1 and 3 μg/kg vs controls",significantly more time
same,duration of male immobility during the first and second PEI,"male rats [6]; 0.3, 1 and 3 μg/kg vs vehicle controls",significantly less time
same,"Immobility period, Retest session","male Wistar/AF EOPS rats [1]; 50 μg/kg i.v., 1440, 300, 5 min before retest",141.20 ± 21.28
same,"period of immobility, retest compared with test","male Wistar/AF EOPS rats [1]; 50 μg/kg, difference not statistically significant",increase their period of immobility
same,"Immobility period, Retest session","male Wistar/AF EOPS rats [1]; 100 μg/kg i.v., 1440, 300, 5 min before retest",121.50 ± 17.47
same,behavioral resignation (antidepressant effect),"male Wistar/AF EOPS rats [1]; 50 and 100 μg/kg, i.v.",no behavioral resignation
same,"Immobility period, Test session","male Wistar/AF EOPS rats [1]; FG-50 group, 50 μg/kg i.v.",119.00 ± 13.79
same,"Immobility period, Test session","male Wistar/AF EOPS rats [1]; FG-100 group, 100 μg/kg i.v.",138.30 ± 11.03
same,"period of immobility, retest compared with test",male Wistar/AF EOPS rats [7],reduce it

# From patent publication US7387778B2, “Therapeutic methods and compositions for the treatment of impaired interpersonal and behavioral disorders” (Institut Pasteur, priority 1999, dated 2008)
